From US6057153A, “Stabilized external guide sequences” (Yale University, priority 1997, dated 2000)

Columns and labels:
[1] = APL patients, cited from earlier work
[2] = test system: APL RNA (PML-RARα fusion junction); test: Test tube cleavage assay; assay type: biochemical; details: 0.25 μM EGS, RNase P from HeLa cells
Procedure: Test tube cleavage assay: Three nanograms of linearized pAPL-3Z3 plasmid with HindIII restriction enzyme was transcribed as described in Example 1 in presence of ^32 P-ATP for 30 minutes 0.25 μM (final concentration) of EGS and 2 μl of a purified preparation of RNase P from HeLa cells (Bartkiewicz et al., Genes and Development, 3:488-499 (1989)) was added to the transcription reaction during the transcription. The reaction products were separated on a denaturing polyacrylamide gel and visualized using a Molecular Dynamics PHOSPHORIMAGER™.

NB4/D5 cells = test: MTT proliferation assay; assay type: cell-based, human; details: for effect on cell growth as measured by MTT assay: NB4/D5 cells, 1 to 10 μM EGS, daily replacement; for concentration above which dose dependent inhibition of NB4 cell growth was observed: NB4 cells, MTT assay
Procedure: Cell culture testing: NB4 cells, a maturation inducible cell line with t(15;17) translocation marker isolated from an acute promyelocytic leukemia patient (Lanotte et al. (1991)) was used to test the antiproliferative activity of EGSs targeted to PML-RARα. These cells respond to maturation-inducing effects of all-trans retinoic acid. One subclone of NB4 cells, NB4/D5, which uniformly responds to retinoic acid (Ahn et al. (1995)), was used for cell culture testing. The NB4 cells were grown in RPMI media containing 10% fetal bovine serum (Intergen, Purchase, N.Y.), 100 U/ml penicillin, 200 μg/ml streptomycin, and 20 mM glutamine with pCO2 of 5% at 37° C.
All treatments were done in triplicate and experiments were repeated more than once. NB4/D5 cells which were maintained in logarithmic growth phase were seeded at a density of 1×10^5 cells in 1 ml of RPMI medium in a 24 well tissue culture plate. Increasing concentrations of EGS were added to the cells. More than 90% of the media was removed every 24 hours and replaced with fresh media containing the same concentration of EGS. An aliquot of the cells was removed every 24 hours and an MTT proliferation assay (as described by Mosmann et al., Journal of Immunological Methods, 65:55 (1983)) was performed on these cells.

HBV RNA = test: RNase protection assay after transfection of pol III EGS expression vectors; assay type: cell-based; details: HepG2.2.15 cells transfected with EGS plasmids
Description: Cloning of EGS 2 and EGS 62: pREP9 (Invitrogen, San Diego, Calif.), an Epstein-Barr virus-based vector (Yates et al., Nature, 313:812-815 (1985)), was cut with XbaI and KpnI to remove the RSV LTR promoter sequence in the vector and a 244 nucleotide human U6 promoter (hU6; from nucleotide +1 to -244) was cloned into this region. cDNAs corresponding to EGS 2 and EGS 62 (see FIGS. 19 and 20, respectively) were synthesized on an Applied Biosystems DNA synthesizer, purified and cloned downstream of the hU6 promoter between KpnI and BamHI. The EGS sequence and the hU6 promoter sequence were excised using XbaI and BamHI and subcloned in pCEP4 (Invitrogen, San Diego, Calif.) that had been digested with BglII and NheI. […]
All plasmids were amplified in bacteria and the plasmid DNAs were purified using Qiagen (Qiagen Inc., Chatsworth, Calif.) columns. […] The protected fragments were separated on a 6% denaturing polyacrylamide gel, and the radioactivity associated with the protected bands were quantitated using a Molecular Dynamics PHOSPHORIMAGER™. The quantitation of the GAPDH RNA was used to normalize the samples.

Substrate RNA (SUB-156) = test: RNase P-mediated cleavage assay, single turnover conditions; assay type: biochemical, hepatitis B virus (HBV); details: 200 nM EGS, 20 nM substrate, saturating RNase P, 60 min
Procedure: RNase P-mediated cleavage assay--Human RNase P was purified from HeLa cells according to the published procedures (14). Substrate RNA (SUB-156, FIG. 24) was 5'-end labeled using T4 polynucleotide kinase and [γ-^32P]ATP. The labeling mixture was then heated to 85° C. for 1 min, diluted with RNase-free water, and purified by a MICROSPIN™ G-25 column (Pharmacia) according to the manufacturer's instructions. Cleavage reactions were conducted in a reaction buffer containing 50 mM Tris-HCl (pH 7.4), 25 mM KCl, 10 mM MgCl2 and 0.1 mM EDTA. EGS oligomers and ^32 p-5'-end-labeled RNA substrate were heated in the reaction buffer without MgCl2 to 85° C. for 1 min and then slowly cooled to room temperature. The cleavage reaction was initiated by adding 2 μl of 100 mM MgCl2 and 3 μl of RNase P (enzyme activity for this preparation: cleavage of 0.035 pmol of tRNA^Tyr precursor min^-1 μl^-1). The final reaction volume was 20 μl and the reaction was incubated at 37° C. for 60 min. […] For each sample, cleavage reactions were performed in duplicates and the average values were used. To ensure reproducibility, cleavage assays for each EGS were also repeated in two separate experiments. The all-RNA EGS-159 was used as the reference sample and its cleavage values were counted as 100%. Cleavage percentages of all other EGSs were normalized against EGS-159 (Rel. Cleavage %) except in FIG. 30 and FIG. 31 where absolute cleavage percentages (Abs. Cleavage %) were plotted.
(§1) For EGS-single turnover conditions, the final concentrations were 200 nM for EGS and 20(nM for the RNA substrate. For EGS-multiple turnover conditions, the final concentrations were 200 nM for the RNA substrate and 40 nM for EGS. When determination of the time-course was required, the reaction volume was increased to 40 μl. Aliquots of 5-8 μl were removed from the reaction mixture at different time points (e.g. 1, 5, 15, 30 and 60 min), quenched in formamide loading buffer, and loaded onto 15% polyacrylamide/8 M urea gels. Quantitation of the cleavage product and the remaining RNA substrate was achieved using a Molecular Dynamics PHOSPHORIMAGER™.
General considerations--To select lead nuclease-resistant oligonucleotide prototypes as external guide sequences among many possible modifications, a reliable yet rapid in vitro cleavage assay for routine screening was used. Human RNase P, a ribonucleoprotein, is composed of a 340-nt H1 RNA component and one or more proteins (for recent review, see Ref. 16). A 3-step screening strategy was devised: 1) All analogues once synthesized were tested by a fast qualitative cleavage assay under single turnover conditions with 10-fold excess of EGS over target RNA substrate for 60 min. […] This was the best cleavage condition used in this study. Any analogue with a reasonable activity (e.g. more than 5% cleavage) would not be missed, under these circumstances, due to the high detection sensitivity provided by PHOSPHORIMAGER™. 2) Promising analogues were then assayed for stability in 50% human serum.

[3] = Nuclease resistance studies in 50% human serum; assay type: in vitro ADME; details: 37° C., 24 h
Procedure: Nuclease resistance studies--100 μl of EGS oligonucleotides (5 μM), containing a trace of 5'-end-labeled oligomers, were incubated at 37° C. for different time periods (0-24 h) with 50% human serum (Sigma, S-7023). 20 μl aliquots were diluted to 100 μl with RNase-free water, phenol/chlorform extracted, and ethanol precipitated. The residue was resuspended in 10 μl of TE and 10 μl of 2× gel loading buffer containing 98% formamide, 10 mM1 EDTA and 0.1% bromophenol blue. The mixture was heated to 85° C. for 1 min, quickly cooled on ice and frozen at -20° C. prior to electrophoresis on 15% polyacrylamide/8 M urea gels. Gels were subsequently scanned on a Molecular Dynamics PHOSPHORIMAGER™, and the stability profile for each, oligomer was estimated from the ratio of the remaining intact materials versus all radio-labeled materials (intact oligomers plus degradation products). Stability studies of non radio-labeled EGS oligomers using capillary gel electrophoresis were also carried out according to the method of Leeds et al. (15).

[4] = test system: EGS/target RNA complex (SUB-156) with human RNase P; test: Measurements of kcat and A50; assay type: biochemical, hepatitis B virus (HBV)
Procedure: Measurements of kcat, Km and A50 --Measurements of these kinetic parameters were carried out using conditions similar to those described above (e.g. identical cleavage buffers). For kcat measurements, aliquots were taken every 30-60 s for the first 5 min. The logarithm of the percentage of cleavage (Abs. Cleavage %) was plotted against time, and the data points were fitted using a linear least-squaresanalysis. The slope represents kcat values. For Km measurements,a fixed amount of RNase P (0.6 μl) was used, while substrate concentrations (i.e. EGS/target RNA complex) varied from 25 to 500 nM. Several EGS/target RNA ratios were assayed including 1:1, 5:1 and 10:1. Attempts were made to obtain Km and Vmax values from linear Lineweaver-Burk or Eadie-Hofstee plots. The scattered values could not be fit as a hyperbolic function. For A50 measurements, the ratio between EGS and target RNA was kept as 10:1. Various amounts of RNase P (0.3 to 3 μl) were used to conduct a 60-min cleavage reaction. Percentage of cleavage was plotted against [RNase P] in μl, and 50% cleavage values (A50) were determined using a non-linear, least-squares routine (Kaleidagraph, Synergy Software). The amount of RNase P required to reach A50 was then converted to enzyme unit. 1 unit of RNase P represents the amount of RNase P that catalyzes the conversion of 1 pmol of tRNA^Tyr precursor to cleavage products per minute per μl of the enzyme preparation. 1 unit of RNase P preparation used for this study equals 28.57 μl.

target RNA SUB-156 = test: RNase P-mediated cleavage, EGS-multiple turnover conditions; assay type: biochemical, hepatitis B virus (HBV); details: 5-fold of RNA target over EGS
Procedure: FIG. 31 is a graph of a time-course of cleavage with selected EGSs under EGS-multiple turnover conditions. Experiments were conducted under similar conditions as that used in FIG. 30 with the exception that the molar ratio between ^32 P-5'-end-labeled target RNA SUB-156 and the respective EGSs was 5:1. Saturing amounts of RNase P were employed. Aliquots were withdrawn from the cleavage reaction at different time points, quenched in formamide loading buffer and loaded on 15% polyacryladmide/8 M urea gels. Absolute percentages of cleavage are expressed on the Y-axis. EGS-159 (.circle-solid.) is the all-RNA EGS control and EGS-407 (.smallcircle.) is one of the lead modified prototypes.
as §1

Compound: CC1=C(/C=C/C(C)=C/C=C/C(C)=C/C(=O)O)C(C)(C)CCC1 [TRETINOIN, all-trans retinoic acid]
- patients in whom remission was induced ([1]; several published studies): about 48%
- duration of the remission, average [1]: 3.5 months

Compound: APL 1009: EGS SEQ ID NO. 12 targeted to the fusion junction of PML-RARα (guide GUCUCAAGAAGGUUCGAAUCCUUCGGCUGCC; chemistry not given here)
- cleavage of the APL RNA at the fusion junction [2]: induced cleavage
- effect on cell growth as measured by MTT assay (NB4/D5 cells): inhibitory to cell growth
- concentration above which dose dependent inhibition of NB4 cell growth was observed (NB4/D5 cells): above 3 μM

Compound: APL A20: EGS SEQ ID NO. 11 targeted to the fusion junction of PML-RARα (guide GGGUCUCAGGCCCGGGUUCGAUUCCCGGUGGCUGC; chemistry not given here)
- cleavage of the APL RNA at the fusion junction [2]: induced cleavage
- effect on cell growth as measured by MTT assay (NB4/D5 cells): inhibitory to cell growth
- concentration above which dose dependent inhibition of NB4 cell growth was observed (NB4/D5 cells): above 3 μM

Compound: EGS 2A: SEQ ID NO. 27, anti-HBV EGS expressed from hU6 pol III vector (guide GTGCTCGCTTCGGCAGCACTATACGCAGCGATCCGGGTTCCCGGCCAGGACACTATTTTT)
- inhibition of HBV RNA expression (ranking) (HBV RNA): maximal inhibition

Compound: EGS-407: lead prototype, U54 replaced with thymidine, SEQ ID NO. 46 (AGAUGAUAGAAGGTUAGAAUCCUUCACGCCGC; guide RNA; Thymidine at tRNA position 54, rest of chemistry not given here)
- RNase P-mediated cleavage activity compared to the all-RNA control (Substrate RNA (SUB-156)): promising
- degradation in 50% human serum [3]: no degradation products were detected
- A50 (amount of RNase P required to achieve 50% cleavage) ([4]; 60 min, EGS in 10-fold excess relative to the RNA target): 0.053 unit
- kcat ([4]; single turnover, first 5 min): indistinguishable from that of the all-RNA control
- turnover over a course of 60 min (target RNA SUB-156): about 3 times
